Values of other authors, collected in patent publication US12533416B2, “Krill oil for solubilizing poorly water-soluble dietary supplements and pharmaceutically active agents” (ID CARE UG (haftungsbeschränkt), priority 2018, dated 2026).

Settings: Class 4 = low solubility

Row | BCS class (solubility / permeability) | SMILES
1 | BCS Class 4 | Nc1nc2c(ncn2COCCO)c(=O)[nH]1 [Aciclovir, aciclovir]
2 | BCS Class 4 | CC[C@H]1OC(=O)[C@H](C)[C@@H](O[C@H]2C[C@@](C)(OC)[C@@H](O)[C@H](C)O2)[C@H](C)[C@@H](O[C@@H]2O[C@H](C)C[C@H](N(C)C)[C@H]2O)[C@](C)(O)C[C@@H](C)CN(C)[C@H](C)[C@@H](O)[C@]1(C)O [Azithromycin, azithromycin]
